The results in this text go back to EP2857388A1, “Azoles containing sulfone” (Grünenthal GmbH, priority 2013, dated 2015).

The target of one assay is T1, human B1R (Homo sapiens, UniProt P46663).
T1 construct: expressed in transfected cells; host or cells: CHO K1 cells (Chinese Hamster Ovary), stably transfected
T1 sequence (P46663 1-353): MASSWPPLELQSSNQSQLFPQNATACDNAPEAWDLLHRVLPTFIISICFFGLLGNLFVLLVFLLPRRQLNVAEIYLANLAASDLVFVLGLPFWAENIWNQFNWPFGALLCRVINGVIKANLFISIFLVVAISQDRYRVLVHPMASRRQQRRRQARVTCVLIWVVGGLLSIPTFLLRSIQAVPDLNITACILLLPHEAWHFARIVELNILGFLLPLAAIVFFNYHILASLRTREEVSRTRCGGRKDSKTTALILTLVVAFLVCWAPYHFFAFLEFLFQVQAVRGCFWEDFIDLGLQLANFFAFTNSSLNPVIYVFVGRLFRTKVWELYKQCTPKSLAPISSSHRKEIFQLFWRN
Nature of the assay: Functional assay at bradykinin receptor 1 (B1R): Ca2+ fluorescence (Fluo-4) in FLIPR/Novostar, antagonist mode. As to conditions: test substance 10 µM; CHO K1 cells stably transfected with human B1R gene (hB1R-Zellen); agonist Lys-Des-Arg9-Bradykinin at EC80; % inhibition relative to maximal achievable inhibition. Format: cell-based. In outline: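 CHO K1 cells stably expressing human B1R were loaded with Fluo-4 and preincubated 6–20 min with test compound before Lys-Des-Arg9-bradykinin at its EC80. Peak fluorescence (ex 488/em 540 nm) gave % inhibition versus maximal inhibition; IC50 from several concentrations, n=2 or 3.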
Take “2-[3-[[(2-Chlor-6-methyl-phenyl)sulfonyl]-methyl]-[1,2,4]oxadiazol-5-yl]-N-(3,3-dimethyl-piperidin-4-yl)-acetamid [CC-120]”: the “% Inhibierung (human B1R) bei 10 µM” value was 98%.

The assay is the same for the next values; noted with them: test substance 10 µM; CHO K1 cells stably transfected with human B1R gene (hB1R-Zellen); agonist Lys-Des-Arg9-Bradykinin at EC80; % inhibition relative to maximal achievable inhibition; read-out: % Inhibierung (human B1R) bei 10 µM.
Regarding `COc1cc(C)c(S(=O)(=O)Cc2noc(CC(=O)N3CCC4(CC3)CCN(c3ccncc3)CC4)n2)c(C)c1` [SC-11, 2-[3-[[(4-Methoxy-2,6-dimethyl-phenyl)sulfonyl]-methyl]-[1,2,4]oxadiazol-5-yl]-1-(9-pyridin-4-yl-3,9-diazaspiro[5.5]undecan-3-yl)-ethanon], the inhibition at 10 µM came out at 99%.
`CC1(C)CC(N2CCCC2)CCC1NC(=O)Cc1nc(CS(=O)(=O)c2ccc(Cl)c(Cl)c2)no1` (stereo not drawn) [CC-53, 2-[3-[[(3,4-Dichlorphenyl)sulfonyl]-methyl]-[1,2,4]oxadiazol-5-yl]-N-(2,2-dimethyl-4-pyrrolidin-1-yl-cyclohexyl)-acetamid]: the inhibition at 10 µM was determined as 100%.
With `Cc1cccc(Cl)c1S(=O)(=O)Cc1noc(CC(=O)NC2CCN(C)CC2(C)C)n1` (stereo not drawn) [CC-96, 2-[3-[[(2-Chlor-6-methyl-phenyl)sulfonyl]-methyl]-[1,2,4]oxadiazol-5-yl]-N-(1,3,3-trimethyl-piperidin-4-yl)-acetamid], the inhibition at 10 µM stood at 100%.
Consider `CC1(C)CC(N2CCCC2)CCC1NC(=O)Cc1nc(CS(=O)(=O)c2cccc(Cl)c2Cl)no1` (stereo not drawn) [CC-106, 2-[3-[[(2,3-Dichlor-phenyl)sulfonyl]-methyl]-[1,2,4]oxadiazol-5-yl]-N-(2,2-dimethyl-4-pyrrolidin-1-yl-cyclohexyl)-acetamid], for which the inhibition at 10 µM was found to be 82%.
Regarding `Cc1cccc(Cl)c1S(=O)(=O)Cc1noc(C(=O)N2CCC3(CC2)CCN(c2ccncc2)C3)n1` [CC-145, [3-[[(2-Chlor-6-methyl-phenyl)sulfonyl]-methyl]-[1,2,4]oxadiazol-5-yl]-(3-pyridin-4-yl-3,8-diazaspiro[4.5]decan-8-yl)-methanon], the inhibition at 10 µM turned out to be 100%.
Consider `COc1cc(C)c(S(=O)(=O)Cc2cn(CC(=O)NC3CCC(N4CCCC4)CC3(C)C)nn2)c(C)c1` (stereo not drawn) [CC-158, N-(2,2-Dimethyl-4-pyrrolidin-1-yl-cyclohexyl)-2-[4-[[(4-methoxy-2,6-dimethyl-phenyl)sulfonyl]-methyl]-1H-[1,2,3]triazol-1-yl]-acetamid], for which the inhibition at 10 µM was determined as 100%.
Still for that read-out and setting: the figure for `COc1cc(C)c(S(=O)(=O)Cc2nc(CC(=O)NC3CCC(c4ccncc4)CC3(C)C)no2)c(C)c1` (stereo not drawn) [CC-37, N-(2,2-Dimethyl-4-pyridin-4-yl-cyclohexyl)-2-[5-[[(4-methoxy-2,6-dimethyl-phenyl)sulfonyl]-methyl]-[1,2,4]oxadiazol-3-yl]-acetamid] is 99%.
On the same count and under the same terms, the figure for `COc1cc(C)c(S(=O)(=O)Cc2noc(CC(=O)NC3CCN(c4ccc(C(F)(F)F)cn4)CC3)n2)c(C)c1` [CC-03, 2-[3-[[(4-Methoxy-2,6-dimethyl-phenyl)sulfonyl]-methyl]-[1,2,4]oxadiazol-5-yl]-N-[1-[5-(trifluor-methyl)-pyridin-2-yl]-piperidin-4-yl]-acetamid] is 91%; for `COc1cc(C)c(S(=O)(=O)Cc2cn(CC(=O)NC3CCC(NC4CC4)CC3(C)C)nn2)c(C)c1` (stereo not drawn) [CC-175, N-[4-(Cyclopropylamino)-2,2-dimethyl-cyclohexyl]-2-[4-[[(4-methoxy-2,6-dimethyl-phenyl)sulfonyl]-methyl]-1 H-[1,2,3]triazol-1-yl]-acetamid] it is 100%; for `Cc1cc(S(=O)(=O)Cc2noc(C(=O)N3CCC4(CC3)CCN(c3ccncc3)C4)n2)c(C)cc1Cl` [CC-152, [3-[[(4-Chlor-2,5-dimethyl-phenyl)sulfonyl]-methyl]-[1,2,4]oxadiazol-5-yl]-(3-pyridin-4-yl-3,8-diazaspiro[4.5]decan-8-yl)-methanon] it is 100%.
Consider `Cc1cccc(Cl)c1S(=O)(=O)Cc1noc(C(=O)N(C)[C@H]2CCC[C@@H](N3CCN(C)CC3)C2)n1` [SC-49, 3-[[(2-Chlor-6-methyl-phenyl)sulfonyl]-methyl]-N-methyl-N-[(1S,3R)-3-(4-methyl-piperazin-1-yl)-cyclohexyl]-[1,2,4]oxadiazol-5-carbonsäure amid], for which the inhibition at 10 µM came to 99%.
On to `COc1cc(C)c(S(=O)(=O)Cc2nnc(CC(=O)N(C)C3CCNCC3(C)C)o2)c(C)c1` (stereo not drawn) [CC-88, N-(3,3-Dimethyl-piperidin-4-yl)-2-[5-[[(4-methoxy-2,6-dimethyl-phenyl)sulfonyl]-methyl]-[1,3,4]oxadiazol-2-yl]-N-methyl-acetamid], for which the inhibition at 10 µM was 97%.
As to `COc1cc(C)c(S(=O)(=O)Cc2nc(CC(=O)NC3CCC(N4CCN(C)CC4)CC3(C)C)no2)c(C)c1` (stereo not drawn) [CC-33, N-[2,2-Dimethyl-4-(4-methyl-piperazin-1-yl)-cyclohexyl]-2-[5-[[(4-methoxy-2,6-dimethyl-phenyl)sulfonyl]-methyl]-[1,2,4]oxadiazol-3-yl]-acetamid], the inhibition at 10 µM worked out at 100%.
With `COc1cc(C)c(S(=O)(=O)Cc2nc(CC(=O)NC3CCC(N4CCCC4)CC3(C)C)no2)c(C)c1` (stereo not drawn) [CC-26, N-(2,2-Dimethyl-4-pyrrolidin-1-yl-cyclohexyl)-2-[5-[[(4-methoxy-2,6-dimethyl-phenyl)sulfonyl]-methyl]-[1,2,4]oxadiazol-3-yl]-acetamid], the inhibition at 10 µM amounted to 100%.
`COc1cc(C)c(S(=O)(=O)Cc2noc(CC(=O)N(C)C3CCN(c4ncnc5ccccc45)CC3)n2)c(C)c1` [SC-63, 2-[3-[[(4-Methoxy-2,6-dimethyl-phenyl)sulfonyl]-methyl]-[1,2,4]oxadiazol-5-yl]-N-methyl-N-(1-chinazolin-4-yl-piperidin-4-yl)-acetamid]: the inhibition at 10 µM was determined as 100%.
In the case of `COc1cc(C)c(S(=O)(=O)Cc2noc(C(=O)N(C)C3CCN(c4ccnc(N(C)C)c4)CC3)n2)c(C)c1` [SC-69, N-[1-(2-Dimethylamino-pyridin-4-yl)-piperidin-4-yl]-3-[[(4-methoxy-2,6-dimethyl-phenyl)sulfonyl]-methyl]-N-methyl-[1,2,4]oxadiazol-5-carbonsäure amid], the inhibition at 10 µM is 100%.
On the same count and under the same terms, as for `CC(=O)N1CCC(NC(=O)Cc2nc(CS(=O)(=O)c3cccc(Cl)c3Cl)no2)C(C)(C)C1` (stereo not drawn) [CC-47, N-(1-Acetyl-3,3-dimethyl-piperidin-4-yl)-2-[3-[[(2,3-dichlor-phenyl)sulfonyl]-methyl]-[1,2,4]oxa-diazol-5-yl]-acetamid], the figure is 62%.
Still for that read-out and setting: the figure for `COc1cc(C)c(S(=O)(=O)Cc2nnc(CC(=O)NC3CCNCC3)o2)c(C)c1` [CC-97, 2-[5-[[(4-Methoxy-2,6-dimethyl-phenyl)sulfonyl]-methyl]-[1,3,4]oxadiazol-2-yl]-N-piperidin-4-yl-acetamid] is 98%; for `COc1cc(C)c(S(=O)(=O)Cc2c(C)nn(CC(=O)NC3CCC(c4ccncc4)CC3(C)C)c2C)c(C)c1` (stereo not drawn) [CC-172, N-(2,2-Dimethyl-4-pyridin-4-yl-cyclohexyl)-2-[4-[[(4-methoxy-2,6-dimethyl-phenyl)sulfonyl]-methyl]-3,5-dimethyl-1 H-pyrazol-1-yl]-acetamid] it is 100%; for `Cc1cc(S(=O)(=O)Cc2noc(CC(=O)NC3CCNCC3(C)C)n2)c(C)cc1Cl` (stereo not drawn) [CC-62, 2-[3-[[(4-Chlor-2,5-dimethyl-phenyl)sulfonyl]-methyl]-[1,2,4]oxadiazol-5-yl]-N-(3,3-dimethyl-piperidin-4-yl)-acetamid] it is 54%.
